One data set concerns anti-dsDNA IgG. Put plainly: MALDI-TOF MS, catalysis of peptide by anti-dsDNA IgG. The note with it: peptide 2 µg/ml with IgG (molar ratio = 1:5), 37°C, 30 min, triplicate. On the set-up: species or system murine. As for the experimental part:
Matrix-assisted laser desorption/ionization–time of flight mass spectrometry was performed for identifying the sequences of peptide fragments. As described previously ([36]), an ABI 4800 Analyzer (AB Science, Foster City, CA, USA) was used for such analysis. The ALW (L-form or D-form) and KIR peptides (2 µg/ml) were mixed with anti-dsDNA IgG or control IgG (molar ratio = 1:5), respectively. The mixtures were incubated at 37°C for 30 min. Then, these samples were diluted in distilled water (1:100) and then mixed with the α-cyano-4-hydroxycinnamic acid matrix at a ratio of 1:1. Samples in triplicate were then loaded to the MALDI target. Mass spectrum was produced on 80 individual spectra of each spot.

Another data set relates to MRL/lpr mice. To be noted: ref [28]; cited from earlier work. From the text: The JAK2/STAT1 pathway mediates the renal damage in lupus models induced by anti-dsDNA antibodies. […] Moreover, STAT1 deficiency in the lupus-like chronic graft-versus-host disease model led to a prolonged but amplified increase of anti-dsDNA IgG in sera and also higher proteinuria and mortality ([29]). This phenomenon might be du ...

Another data set deals with T1, KIR peptide (SOCS1) (Mus musculus, UniProt O35716).
T1 construct: The KIR of SOCS1 was synthesized as a 16-mer peptide (2.09 kDa); purchased Sangon Biotech Company (Shanghai, China); host or cells: chemical synthesis
Put plainly: Surface plasmon resonance, JAK2 loop peptide over immobilized biotinylated KIR peptide. The note with it: SPR, JAK2 loop peptide 0–250 nM. The class given is binding. As for the experimental part: The Biacore 3000 instrument (Biacore, Piscataway, NJ, USA) was used for the quantitation of binding affinities ([8], [35]). For anti-dsDNA IgG binding to KIR peptide, anti-dsDNA IgG (10 nM in MES buffer) was immobilized on a CM sensor chip (GE Healthcare, Port Washington, NY, USA), and then KIR peptide (0–250 nM in HEPES buffer) was run on chip. For JAK2 loop peptide binding to KIR peptide, the biotinylated KIR peptide (5 nM) was immobilized on streptavidin-coated sensor chip, followed by injection of JAK2 loop peptide (0–250 nM). A simple Langmuir model (A + B ↔ AB) was used for calculating binding kinetics.
For orientation: Surface plasmon resonance follows binding to a sensor surface in real time, without labels.

Data set [1] concerns the target T2, biotinylated SOCS1 kinase inhibitory region (KIR) peptide (also: biotinylated (position not given here)).
T2 construct: Captured by its biotin on streptavidin-coated sensor chips and plates; An unbiotinylated KIR peptide was run over the immobilised anti-dsDNA IgG only; also called SOCS1-KIR; biotinylated KIR peptide; source: synthetic peptide (Sangon Biotech Company)
T2 peptide: DTHFRTFRSHSDYRRI
In words: SPR; Biacore 3000; biotinylated KIR peptide (5 nM) immobilised on a streptavidin-coated sensor chip, JAK2 loop peptide injected at 0-250 nM; simple Langmuir model (A + B ↔ AB). The note with it: both partners purified.

Data set [2] concerns the target T2, biotinylated SOCS1 kinase inhibitory …. Put plainly: ELISA; inhibition ELISA; biotinylated KIR peptide (5 µg/ml) on streptavidin-coated 96-well plates; FITC-labeled JAK2 loop peptide (0.2 µg/ml) pre-incubated with serially diluted anti-dsDNA IgG (0.02 to 20 µg/ml) or control IgG; fluorescein intensity read. To be noted: both partners purified. For orientation: In an ELISA, binding on a coated surface is turned into a signal by an enzyme label.

Where no end group is shown, it is not given here.

For the molecule DTHFRTFRSHSDYRRI [KIR peptide], the “catalysis of KIR peptide by anti-dsDNA IgG” value with anti-dsDNA IgG is “almost catalyzed by anti-dsDNA IgG”.
Consider `N#C/C(=C\c1ccc(O)c(O)c1)C(=O)NCc1ccccc1` [tyrphostin AG490], for which, in the data set with MRL/lpr mice, the “glomerular deposition of anti-dsDNA IgG” value was “decrease”, the “phosphorylation of JAK2” value is given as “significantly inhibited”, the “phosphorylation of STAT1” value is “significantly inhibited” and the proteinuria result is listed as “decrease”. For the same molecule, in the data set on MRL/lpr mice, the renal histological lesions result was “decrease” and the “serum titer of anti-dsDNA IgG” value is listed as “decrease”.
A word on the Kd: it is the equilibrium constant for the complex coming apart. On KIR peptide (SOCS1) (Biacore 3000, biotinylated KIR peptide (5 nM) immobilized on streptavidin chip, simple Langmuir model), LPQDKEYYKVKEP [JAK2 loop peptide] gave a Kd of 44.6 nM. The kon at KIR peptide (SOCS1) (biotinylated KIR peptide immobilized, Langmuir model, read-out: Ka (association rate)) was determined as 13500 M⁻¹ s⁻¹. Besides, the koff on KIR peptide (SOCS1) (biotinylated KIR peptide immobilized, Langmuir model, read-out: Kd (dissociation rate)) was 0.000603 s⁻¹.

B1: JAK2 loop peptide (peptide)
peptide: LPQDKEYYKVKEP
notes: loop region of Janus kinase 2 (JAK2), 13-mer, 1.64 kDa; the SPR methods name the 'JAK2 loop peptide' without a label; source: synthetic peptide (Sangon Biotech Company)
For B1, in data set [1], the Kd worked out at 44.6 nM, the koff was determined as 0.000603 s⁻¹ and the kon was 13500 M⁻¹ s⁻¹.

B2: FITC-labeled JAK2 loop peptide (peptide)
peptide: LPQDKEYYKVKEP
modifications: also: FITC-labeled (position not given here)
notes: loop region of Janus kinase 2 (JAK2), 13-mer; also called FITC–JAK2 loop; FITC (0.39 kDa)–JAK2 loop; source: synthetic peptide (Sangon Biotech Company)
For the molecule B2, in data set [2], the binding result is on record as “binds”.

(Values after PMC5449454, “Anti-Double-Stranded DNA IgG Participates in Renal Fibrosis through Suppressing the Suppressor of Cytokine Signaling 1 Signals” (Frontiers in Immunology, 2017).)
